Measured values as given in patent publication US4490370A, “Naphthylglycyl cephalosporin derivatives” (priority 1983, dated 1984).
Where two headings read alike, the source gives them in different places.

Columns and labels:
[1] = test system: Staph. aureus; assay: Agar dilution MIC, Staph. aureus; format: cell-based; settings: Staphylococcus aureus, read-out: MIC
Description: (§1) The following Tables present typical minimum inhibitory concentrations (MIC's) in μg/ml for the compounds when evaluated against the indicated microorganisms.

[2] = test system: Strep. A; assay: Agar dilution MIC, Strep. A; format: cell-based; settings: Table I, strain C203; read-out: MIC
Description: (§2) A typical and preferred compound provided by this invention is 7-(2-naphthylglycylamido)-3-methyl-3-cephem-4-carboxylic acid, the compound of Example 3. The antibacterial activity of this compound and several others of the invention has been determined in standard in vitro agar dilution assays against a variety of gram positive microorganisms. The following Tables present typical minimum inhibitory concentrations (MIC's) in μg/ml for the compounds when evaluated against the indicated microorganisms. MIC's for several known compounds are also presented for comparison.

[3] = test system: β-lactamase (organism 265A); assay: Stability to β-lactamases, 265A; format: biochemical; settings: lower numbers mean greater stability
[4] = test system: Propionibacterum acnes; assay: Susceptibility of anaerobes, agar-dilution, 24 hour MIC; format: cell-based
Description: as §2
(§3) Susceptibility of Anaerobic Cocci
(§4) Isolates by the Agar-Dilution
(§5) Method-24 hour MIC's (μg/ml)

[5] = test system: β-lactamase (organism PS185); assay: Stability to β-lactamases, PS185; format: biochemical; settings: lower numbers mean greater stability
[6] = test system: β-lactamase (organism 1313G); assay: Stability to β-lactamases, 1313G; format: biochemical; settings: lower numbers mean greater stability
[7] = test system: B. Fragilis; assay: Expanded spectrum MIC, B. Fragilis; format: cell-based; settings: Bacteroides fragilis, Table III, read-out: MIC
Description: as §2

[8] = test system: P. prevoti; assay: Susceptibility of anaerobic cocci, agar-dilution, 24 hour MIC; format: cell-based; settings: isolate 1293
Description: as §2, §3, §4, §5

[9] = test system: P. magnus; assay: as above; format: cell-based; settings: Finegoldia magna
Description: as §2, §3, §4, §5

[10] = test system: Peptococcus Constellatus; assay: as above; format: cell-based; settings: Streptococcus constellatus, isolate 1468
Description: as §2, §3, §4, §5

[11] = test system: Peptostreptococcus intermedius; assay: as above; format: cell-based
Description: as §2, §3, §4, §5

[12] = test system: Peptostreptococcus anaerobius; assay: as above; format: cell-based
Description: as §2, §3, §4, §5

[13] = test system: Peptococcus Asaccharolyticus; assay: as above; format: cell-based; settings: Peptoniphilus asaccharolyticus, isolate 1344
Description: as §2, §3, §4, §5

[14] = test system: H. influ.; assay: Agar dilution MIC, H. influenza; format: cell-based; settings: Table III, strain 102; read-out: MIC
Description: as §1

[15] = test system: β-lactamase (organism 1082E); assay: Stability to β-lactamases, 1082E; format: biochemical; settings: lower numbers mean greater stability
[16] = test system: Strep. PN; assay: Agar dilution MIC, Strep. PN; format: cell-based; settings: Table I, strain PARK; read-out: MIC
Description: as §1

[17] = test system: Klebsiella; assay: Agar dilution MIC, Klebsiella; format: cell-based; settings: Klebsiella; Table I, strain X26; read-out: MIC
Description: as §2

[18] = Oral absorption and blood levels in rodents; format: in vivo
[19] = test system: β-lactamase (TEM); assay: Stability to β-lactamases, TEM; format: biochemical; settings: lower numbers mean greater stability
[20] = test system: Staph. epi; assay: Agar dilution MIC, Staph. epi; format: cell-based; settings: read-out: MIC
Description: as §1

[21] = Plasma concentration after intravenous dose in rats; format: in vivo; settings: rat, intravenous 20 mg/kg
Description: For example, when 7-(2-naphthylglycylamido)-3-methyl-3-cephem-4-carboxylic acid was administered to rats at an intravenous dose of 20 mg/kg, the plasma concentration after one hour was 18.6 μg/ml; after four hours, 14.1 μg/ml; and after twenty-four hours, the plasm level was still measured as 1.96 μg/ml.

[22] = test system: Bacteroides fragilis; assay: Susceptibility of anaerobes, agar-dilution, 24 hour MIC; format: cell-based

## CC1=C(C(=O)O)N2C(=O)C(NC(=O)[C@H](N)c3ccc4ccccc4c3)C2SC1 (stereo partly drawn) [Example 3, D-7-(2-naphthylglycylamido)-3-methyl-3-cephem-4-carboxylic acid tetrahydrate]
[1]; Table I, strain V41
  MIC: 8 µg/mL
[1]; Table I, strain X1.1
  MIC: 0.5 µg/mL
[1]; Table I, strain X400
  MIC: 64 µg/mL
[1]; Table II, strain S224
  MIC: 0.5 µg/mL
[1]; Table II, strain S225
  MIC: 0.5 µg/mL
[1]; Table II, strain S226
  MIC: 1 µg/mL
[1]; Table II, strain S227
  MIC: 1 µg/mL
[1]; Table II, strain S228
  MIC: 0.5 µg/mL
[1]; Table II, strain S229
  MIC: 1 µg/mL
[1]; Table II, strain S230
  MIC: 0.5 µg/mL
[1]; Table II, strain S231
  MIC: 0.5 µg/mL
[1]; Table II, strain S234
  MIC: 1 µg/mL
[1]; Table II, strain S237
  MIC: 1 µg/mL
[1]; Table II, strain S238
  MIC: 1 µg/mL
[1]; Table II, strain S239
  MIC: 1 µg/mL
[1]; Table III expanded spectrum, strain 8725
  MIC: 0.25 µg/mL
[1]; Table III, strain 8438
  MIC: 0.25 µg/mL
[1]; Table III, strain 8787
  MIC: 0.25 µg/mL
[1]; Table III, strain 9050
  MIC: 0.5 µg/mL
[1]; Table III, strain 9136
  MIC: 0.25 µg/mL
[1]; Table III, strain 9290
  MIC: 1 µg/mL
[1]; Table III, strain 9767
  MIC: 1 µg/mL
[2]
  MIC: 0.5 µg/mL
[3]
  Stability to β-lactamases: 50
[4]; isolate 44
  MIC: 4 µg/mL
[4]; isolate 79
  MIC: 8 µg/mL
[4]; isolate 101
  MIC: 8 µg/mL
[4]; isolate 104
  MIC: 8 µg/mL
[4]; isolate 105
  MIC: 4 µg/mL
[4]; isolate 5191
  MIC: 0.25 µg/mL
[4]; isolate 5227
  MIC: 0.25 µg/mL
[4]; isolate 5228
  MIC: 8 µg/mL
[4]; isolate 5229
  MIC: 8 µg/mL
[4]; isolate 5246
  MIC: 8 µg/mL
[5]
  Stability to β-lactamases: 25
[6]
  Stability to β-lactamases: 256
[7]; strain 180-821
  MIC: 2 µg/mL
[7]; strain 10668
  MIC: 32 µg/mL
[7]; strain 10683
  MIC: 32 µg/mL
[7]; strain 10695
  MIC: 4 µg/mL
[7]; strain 10750
  MIC: 16 µg/mL
[7]; strain 10774
  MIC: 16 µg/mL
[7]; strain 10817
  MIC: 2 µg/mL
[7]; strain 10837
  MIC: 16 µg/mL
[7]; strain 107266
  MIC: 16 µg/mL
[7]; strain 107268
  MIC: 8 µg/mL
[8]
  MIC: 0.5 µg/mL
[9]; isolate 1401
  MIC: 0.25 µg/mL
[9]; isolate 1477
  MIC: 0.5 µg/mL
[10]
  MIC: 0.25 µg/mL
[11]; isolate 1264
  MIC: 1 µg/mL
[11]; isolate 1524
  MIC: 1 µg/mL
[11]; isolate 1624
  MIC: 1 µg/mL
[12]; isolate 8
  MIC: ≤ 0.125 µg/mL
[12]; isolate 52
  MIC: 0.25 µg/mL
[12]; isolate 1477
  MIC: ≤ 0.125 µg/mL
[13]
  MIC: ≤ 0.125 µg/mL
[14]
  MIC: 32 µg/mL
[15]
  Stability to β-lactamases: 26
[16]
  MIC: 0.5 µg/mL
[17]
  MIC: 2 µg/mL
[18]
  blood levels compared with cefaclor and cephalexin: higher and longer blood levels than cefaclor and cephalexin
[18]; oral
  oral absorption: efficiently orally absorbed
[19]
  Stability to β-lactamases: 3
[20]; Table I, strain 222
  MIC: 0.5 µg/mL
[20]; Table I, strain EPI1
  MIC: 1 µg/mL
[20]; Table II expanded spectrum, strain EPI1
  MIC: 8 µg/mL
[20]; Table II, strain 219
  MIC: 0.5 µg/mL
[20]; Table II, strain 269
  MIC: 2 µg/mL
[20]; Table II, strain 270
  MIC: 4 µg/mL
[20]; Table II, strain 285
  MIC: 2 µg/mL
[20]; Table II, strain 286
  MIC: 1 µg/mL
[21]; 1 hour, read-out: plasma concentration after one hour
  concentration at 1 h: 18600 ng/mL
[21]; 4 hours, read-out: plasma concentration after four hours
  concentration at 4 h: 14100 ng/mL
[21]; 24 hours, read-out: plasma level after twenty-four hours
  concentration at 24 h: 1960 ng/mL
[22]; isolate 200
  MIC: 32 µg/mL
[22]; isolate 206
  MIC: 16 µg/mL
[22]; isolate 3625
  MIC: 16 µg/mL
[22]; isolate 7371A
  MIC: 16 µg/mL
[22]; isolate 19671
  MIC: > 64 µg/mL
[22]; isolate 19681
  MIC: 16 µg/mL
